Results: ChEMBL document CHEMBL2074440, “Molecular cloning, chromosomal localization, and functional characterization of a human liver Na+/bile acid cotransporter” (J Clin Invest, 1994)

Legend:
Design in all cases: scale not given: the % may be the effect or the level left
[1] = target: T1, Hepatic sodium/bile acid cotransporter (Homo sapiens, UniProt Q14973); experiment: TP_TRANSPORTER: inhibition of Taurocholate uptake (Taurochorate: 10 uM, Bumetanide: 500 uM) in Xenopus laevis oocytes; assay type: functional, cell-based; details: oocyte
T1 sequence (Q14973 whole entry): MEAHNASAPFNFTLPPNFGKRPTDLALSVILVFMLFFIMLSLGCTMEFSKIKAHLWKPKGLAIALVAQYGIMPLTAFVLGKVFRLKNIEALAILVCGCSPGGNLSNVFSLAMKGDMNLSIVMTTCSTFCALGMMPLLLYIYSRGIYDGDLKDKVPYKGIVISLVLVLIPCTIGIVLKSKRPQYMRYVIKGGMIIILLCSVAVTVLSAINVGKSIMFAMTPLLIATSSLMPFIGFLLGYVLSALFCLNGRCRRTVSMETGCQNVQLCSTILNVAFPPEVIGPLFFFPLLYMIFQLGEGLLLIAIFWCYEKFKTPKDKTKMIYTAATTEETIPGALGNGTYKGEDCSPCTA

[2] = target: T1, Hepatic sodium/bile acid cotransporter; experiment: TP_TRANSPORTER: inhibition of Taurocholate uptake (Taurochorate: 10 uM, CDCA: 100 uM) in Xenopus laevis oocytes; assay type: functional, cell-based; details: oocyte
[3] = target: T1, Hepatic sodium/bile acid cotransporter; experiment: TP_TRANSPORTER: inhibition of Taurocholate uptake (Taurochorate: 10 uM, GCDCA: 100 uM) in Xenopus laevis oocytes; assay type: functional, cell-based, Oocyte; details: probe taurocholate (10 uM), read-out: Activity
[4] = target: T1, Hepatic sodium/bile acid cotransporter; experiment: TP_TRANSPORTER: inhibition of Taurocholate uptake (Taurochorate: 10 uM, GC: 100 uM) in Xenopus laevis oocytes; assay type: functional, cell-based; details: oocyte
[5] = target: T1, Hepatic sodium/bile acid cotransporter; experiment: TP_TRANSPORTER: inhibition of Taurocholate uptake (Taurochorate: 10 uM, Lithocholate: 100 uM) in Xenopus laevis oocytes; assay type: functional, cell-based, Oocyte; details: probe taurocholate (10 uM), read-out: Activity
[6] = target: T1, Hepatic sodium/bile acid cotransporter; experiment: TP_TRANSPORTER: inhibition of Taurocholate uptake (Taurochorate: 10 uM, Glycholithocholate: 100 uM) in Xenopus laevis oocytes; assay type: functional, cell-based, Oocyte; details: probe taurocholate (10 uM), read-out: Activity
[7] = target: T1, Hepatic sodium/bile acid cotransporter; experiment: TP_TRANSPORTER: inhibition of Taurocholate uptake (Taurochorate: 10 uM, BSP: 100 uM) in Xenopus laevis oocytes; assay type: functional, cell-based, Oocyte; details: probe taurocholate (10 uM), read-out: Activity
[8] = target: T1, Hepatic sodium/bile acid cotransporter; experiment: TP_TRANSPORTER: inhibition of Taurocholate uptake (Taurochorate: 10 uM, TCDC: 100 uM) in Xenopus laevis oocytes; assay type: functional, cell-based; details: oocyte
[9] = target: T1, Hepatic sodium/bile acid cotransporter; experiment: TP_TRANSPORTER: inhibition of Taurocholate uptake (Taurochorate: 10 uM, TDCA: 100 uM) in Xenopus laevis oocytes; assay type: functional, cell-based; details: oocyte
[10] = target: T1, Hepatic sodium/bile acid cotransporter; experiment: TP_TRANSPORTER: inhibition of Taurocholate uptake (Taurochorate: 10 uM, Taurolithocholate: 100 uM) in Xenopus laevis oocytes; assay type: functional, cell-based, Oocyte; details: probe taurocholate (10 uM), read-out: Activity
[11] = target: T1, Hepatic sodium/bile acid cotransporter; experiment: TP_TRANSPORTER: inhibition of Taurocholate uptake (Taurochorate: 10 uM, TUDC: 100 uM) in Xenopus laevis oocytes; assay type: functional, cell-based; details: oocyte
[12] = target: T1, Hepatic sodium/bile acid cotransporter; experiment: TP_TRANSPORTER: inhibition of Taurocholate uptake (Taurochorate: 10 uM, UDCA: 100 uM) in Xenopus laevis oocytes; assay type: functional, cell-based, Oocyte; details: probe taurocholate (10 uM), read-out: Activity

In the case of `CCCCNc1cc(C(=O)O)cc(S(N)(=O)=O)c1Oc1ccccc1` [BUMETANIDE], the Activity [1] is reported as 71%.

With `C[C@H](CCC(=O)O)[C@H]1CC[C@H]2[C@@H]3[C@H](O)C[C@@H]4C[C@H](O)CC[C@]4(C)[C@H]3CC[C@]12C` [CHENODIOL] the Activity [2] was 13%.

`C[C@H](CCC(=O)NCC(=O)O)[C@H]1CC[C@H]2[C@@H]3[C@H](O)C[C@@H]4C[C@H](O)CC[C@]4(C)[C@H]3CC[C@]12C` [GLYCOCHENODEOXYCHOLATE] gave an activity at 100 µM [3] of 14%.

For `C[C@H](CCC(=O)NCC(=O)O)[C@H]1CC[C@H]2[C@@H]3[C@H](O)C[C@@H]4C[C@H](O)CC[C@]4(C)[C@H]3C[C@H](O)[C@]12C` [GLYCOCHOLIC ACID], the Activity [4] was 44%.

For `C[C@H](CCC(=O)O)[C@H]1CC[C@H]2[C@@H]3CC[C@@H]4C[C@H](O)CC[C@]4(C)[C@H]3CC[C@]12C` [LITHOCHOLIC ACID], the activity at 100 µM [5] was 63%.

`C[C@H](CCC(=O)NCC(=O)O)[C@H]1CC[C@H]2[C@@H]3CC[C@@H]4C[C@H](O)CC[C@]4(C)[C@H]3CC[C@]12C` [LITHOGLYCOCHOLATE] was tested, and the activity at 100 µM [6] was 24%.

With `O=C1OC(c2ccc(O)c(S(=O)(=O)O)c2)(c2ccc(O)c(S(=O)(=O)O)c2)c2c(Br)c(Br)c(Br)c(Br)c21` [SULFOBROMOPHTHALEIN SODIUM] the activity at 100 µM [7] was 41%.

For `C[C@H](CCC(=O)NCCS(=O)(=O)O)[C@H]1CC[C@H]2[C@@H]3[C@H](O)C[C@@H]4C[C@H](O)CC[C@]4(C)[C@H]3CC[C@]12C` [TAUROCHENODEOXYCHOLATE], the Activity [8] was 19%.

With `C[C@H](CCC(=O)NCCS(=O)(=O)O)[C@H]1CC[C@H]2[C@@H]3CC[C@@H]4C[C@H](O)CC[C@]4(C)[C@H]3C[C@H](O)[C@]12C` [TAURODEOXYCHOLIC ACID] the Activity [9] was 10%.

In the case of `C[C@H](CCC(=O)NCCS(=O)(=O)O)[C@H]1CC[C@H]2[C@@H]3CC[C@@H]4C[C@H](O)CC[C@]4(C)[C@H]3CC[C@]12C` [TAUROLITHOCHOLIC ACID], the activity at 100 µM [10] is reported as 33%.

In the case of `C[C@H](CCC(=O)NCCS(=O)(=O)O)[C@H]1CC[C@H]2[C@@H]3[C@@H](O)C[C@@H]4C[C@H](O)CC[C@]4(C)[C@H]3CC[C@]12C` [TAURURSODIOL], the Activity [11] is reported as 8%.

Molecule `C[C@H](CCC(=O)O)[C@H]1CC[C@H]2[C@@H]3[C@@H](O)C[C@@H]4C[C@H](O)CC[C@]4(C)[C@H]3CC[C@]12C` [URSODIOL] has an activity at 100 µM [12] of 45%.
